Results on 20 substances are retold here after patent EP0906335B1, “EBV TYPE B CTL EPITOPES” (THE COUNCIL OF THE QUEENSLAND INSTITUTE OF MEDICAL RESEARCH, priority 1996, dated 2008).

For the first assay, the system named is HLA.
Test: not given
Particulars: Table 4, from the cited reference; cited from earlier work.
CLGGLLTMV: the “HLA Restriction” value is “HLA A2”.

In the case of DEPASTEPVHDQLL, the “HLA Restriction” value is on record as “HLA A11”.

Take DTPLIPLTIF: the “HLA Restriction” value was “HLA B51/A2”.

For the substance EENLLDFVRF, the “HLA Restriction” value was “HLA B44”.

Consider FLRGRAYGL, for which the “HLA Restriction” value is “HLA B8”.

Consider KEHVIQNAF, for which the “HLA Restriction” value is “HLA B44”.

For LPGPQVTAVLLHEES, the “HLA Restriction” value is recorded as “HLA A11”.

For the substance NPTQAPVIQLVHAVY, the “HLA Restriction” value is “HLA A11”.

Regarding QPRAPIRPI, the “HLA Restriction” value is listed as “HLA B7”.

In the case of RLRAEAGVK, the “HLA Restriction” value is listed as “HLA A3”.

Turning to RPPIFIRRL, the “HLA Restriction” value is “HLA B7”.

Turning to RRRWRRLTV, the “HLA Restriction” value was “HLA B27”.

As for RYSIFFDY, the “HLA Restriction” value is “HLA 24”.

For the substance SVRDRLARL, the “HLA Restriction” value was “HLA A2”.

Regarding TSLYNLRRGTALA, the “HLA Restriction” value is reported as “HLA DR1”.

For the substance TVFYNIPPNIPL, the “HLA Restriction” value is “HLA DQ2”.

Turning to VEITPYKPTW, the “HLA Restriction” value is “HLA B44”.

For VSFIEFVGW, the “HLA Restriction” value is given as “HLA B57”.

The subject of another assay is autologous PHA blasts. As to the kind of experiment: CTL assay of type B specific culture B5 against overlapping EBNA-6B peptides (epitope mapping). It counts as cell-based. To be noted: peptides preincubated with autologous PHA blasts; Fig. 3a, 3b. The method, then:
Assessment of peptide specific activity.
The type B specific culture B5 recognised the peptide corresponding to EBNA-6B residues 210-229 (peptide 12 of the EBNA-6B set) when assayed against individual 20-mer overlapping peptides preincubated with autologous PHA blasts (Fig. 3a). […] The corresponding peptide from the type A overlapping sequence was not recognised by this culture, thus confirming the type B specificity of these T cells.
For the substance “peptide 12: 20-mer overlapping peptide corresponding to EBNA-6B residues 210-229”, the “recognition by type B specific culture B5” value is reported as “recognised”.

In another assay the test system is autologous PHA-blasts. As to the kind of experiment: CTL assay of culture A3 against overlapping EBNA-6B peptides (epitope mapping). To be noted: peptides on autologous PHA-blasts; Fig. 4a, 4b.
Regarding “peptide 19: 20-mer overlapping peptide of EBNA-6B, residues 280-299”, the “recognition by culture A3” value was “reactive”.
